Results from patent US9265735B2, “Methods for screening to identify therapeutic agents for Alzheimer's disease and use thereof” (New York University, priority 2010, dated 2016).
“Also recorded” adds a separate entry of the source.

Experiments:
LC3 puncta = LC3 puncta by LC3 immunocytochemistry in PS1KO cells; assay type: cell-based, Murine; details: 200 μM, 6 h
Description: (§1) Immunocytochemistry was performed as previously described (Yu et al., 2005). Secondary antibodies used were from Invitrogen: goat anti-mouse/rabbit/rat Alexa Fluor 488 and goat anti-mouse/rabbit/rat Alexa Fluor 568. Cells were imaged using a plan-Apochromat 40× or 100×/1.4 oil DIC objective lens on the laser scanning confocal microscope, LSM 510 META, with LSM software v3.5 (Carl Zeiss MicroImaging Inc). Images were analysed using ImageJ program (NIH). Organelles with low internal pH were labeled by LysoTracker DND-99 dye (Invitrogen) at the final 100 nM for 30 min. Following 4% PFA fixation, cells were further counter stained with Cat D, LMAP1, or LC3 antibody for 4 hrs then visualized with Alexa Fluor 488 conjugated secondary antibody. Active Cat D was labeled by adding Bodipy-FL-pepstatin A directly to the medium at a final concentration of 1 μg/ml for 1 hr. Following 4% PFA fixation, cells were counter stained with Cat D antibody for 4 hrs and visualized with Alexa Fluor 568 conjugated secondary antibody. […] Cells were incubated for 30 min with MR-Cathepsin B prior to mounting them under the confocal microscope. To block v-ATPase proton pump activity, ammonium chloride (NH4Cl) was added directly to the medium at a final concentration of 20 mM for 6 hrs prior to LysoTracker addition.

[1] = test system: autophagic vacuoles (AVs); experiment: AV accumulation by EM morphometry in PS1KO cells; assay type: cell-based, Murine; details: 200 μM, 6 h
Description: Following treatments, cells were prepared for EM as previously described and AVs, identified using previous morphological criteria (Yu et al., 2005), were classified and counted on electron micrographs (7900× print magnification) of 20 EM images from different lines in each experimental group.

Cat B = Cat B activity by MagicRed-Cathepsin B (MR-Cat B) in PS1KO cells; assay type: cell-based, Murine; details: PS1KO cells; 200 μM, 6 h
Description: as §1, with “To block v-ATPase proton pump activity, ammonium chloride (NH4Cl) was added directly to the medium at a final concentration of 20 mM for 6 hrs prior to LysoTracker addition.” left out
Active Cat D was labeled by adding Bodipy-FL-pepstatin A directly to the medium at a final concentration of 1 mg/ml for 1 hr. […] Cat B staining with MagicRed-Cathepsin B was also measured fluorometrically with a Wallac Victor 2 fluorometer.

PS1KO blastocysts = experiment: Lysosomal pH measurement with Dextran conjugated Lysosensor Yellow/Blue in PS1KO cells; assay type: cell-based, Murine; details: PS1KO cells
Description: For results presented in Example 1, quantification of lysosomal pH was determined using Dextran conjugated Lysosensor Yellow/Blue DND-160 (Invitrogen) as follows. Wild Type and PS1KO blastocysts were grown in High Glucose DMEM+15% FBS with antibiotics to ˜90% confluency. Cells were then trypsinized, harvested (1×10^6 cells/ml) and loaded with 1 mg/ml of Lysosensor-dextran for 1 hour at 37° C. with 5% CO2. The cells were then washed 3× in HBSS and aliquoted at […] into a black 96-well microplate. pH calibration was performed according to the protocol established by Diwu et al (Diwu et al., (1999). Chem Biol 6, 411-418). Briefly, wild type and PS1KO blastocysts were treated with 10 μM monensin and 10 uM nigericin in MES buffer (5 mM NaCl, 115 mM KCL, 1.3 mM MgSO4, 25 mM MES), with the pH adjusted to a range from 3.5-7.0. The samples were read in a Wallac Victor 2 fluorimeter (Perkin Elmer) with excitation at 355 nm. The ratio of emission 440/535 nm was then calculated for each sample. The pH values were determined from the linear standard curve generated via the pH calibration samples.
In a more particular embodiment, quantification of lysosomal pH is determined using Dextran conjugated Lysosensor Yellow/Blue (Invitrogen) as follows. 3000 Wild Type and PS1KO blastocysts were seeded in multiple wells of black, clear bottom tissue culture treated 96 well dish and grown in High Glucose DMEM+15% FBS with antibiotics to ˜90% confluency (˜24 hours). 2 ul of 0.5 mg/ml lysosensor-dextran (1:100 dilution of a 5 mg/ml stock) was added and incubated for 1 hour at 37° C. with 5% CO2. The cells were then washed 3× in HBSS. See also methods and results set forth herein below in Example 2. This modified protocol represents an optimized protocol for the purposes set forth herein.
Quantification of lysosomal pH was determined using Dextran conjugated Lysosensor Yellow/Blue (Invitrogen). 3000 Wild Type and PS1KO blastocysts were seeded in multiple wells of black, clear bottom tissue culture treated 96 well dish and grown in High Glucose DMEM+15% FBS with antibiotics to ˜90% confluency (˜24 hours). 2 ul of 0.5 mg/ml lysosensor-dextran (1:100 dilution of a 5 mg/ml stock) was added and incubated for 1 hour at 37° C. with 5% CO2. The cells were then washed 3× in HBSS.
Performed according to the protocol established by Diwu et al (supra). Briefly, wild type and PS1KO blastocysts were treated with 10 uM monensin and 10 uM nigericin in MES buffer (5 mM NaCl, 115 mM KCL, 1.3 mM MgSO4, 25 mM MES), with the pH adjusted to a range from 3.5-7.0 for 7-10 min prior to lysosensor addition (the additional hour in the buffer seems to have no effect), these cells are not washed in HBSS since permeabilization with ionophores makes them susceptible to detachment.
The samples were read in a Wallac Victor 2 fluorimeter (Perkin Elmer) with excitation at 355 nm. The ratio of emission 440 nm/535 nm was then calculated for each sample. pH values were determined from the linear std curve generated via the pH calibration samples.

tau = details: rats; bilateral injection into the hippocampus; cited from earlier work
p62 = p62 accumulation in PS1KO cells; assay type: cell-based, Murine; details: 200 μM, 6 h
Description: Immunoblotting was performed as previously described (Yu et al., 2005). Briefly, cells used for Western blot analysis were lysed in buffer containing 50 mM Tris (pH=7.4), 150 mM NaCl, 1 mM EDTA, 1 mM EGTA, 1% Triton X-100 and 0.5% Tween-20 with protease and phosphatase inhibitors. Following electrophoresis on 4-20% gradient gel (Invitrogen), proteins were transferred onto 0.45 μm PVDF membranes (Millipore) and the membrane was incubated overnight in primary antibody then incubated with HRP conjugated secondary antibody. The blot was developed by ECL-kit (GE Healthcare). To assess v-ATPase V0a subunit glycosylation, lysate from WT and PS1KO cells were either treated for 24 hrs at 37° C. with PNGase F or O-glycanase using an enzymatic deglycosylation kit according to the manufacturer's instructions (PROzyme) or with Endo H (New England Biolabs) for 24 hrs at 37° C. Total glycoproteins were isolated using Glycoprotein Isolation Kit, ConA according to the manufacturer's instructions (Thermo Scientific).

[2] = in vivo; cited from earlier work

In the case of `CC(C)NCC(O)c1ccc(O)c(O)c1` (centres unmarked) [isoproterenol], the “LC3 puncta accumulation determined by LC3 ICC” value (LC3 puncta) is reported as “reversed”, the “AV accumulation by EM morphometry (total area occupied by AVs per EM field)” value [1] is reported as “reversed” and the “Cat B activity as measured by MR-Cat B” value (Cat B) is reported as “restored to WT levels”. The “lysosomal pH” value (PS1KO blastocysts; 200 μM, 6 h) was “restored to WT levels”, the “effect on elevated lysosomal pH in PS1KO cells” value (PS1KO blastocysts; FIG. 10A/G) was “normal levels or even hyperacidic levels; also recorded: restored to WT levels” and the “tau phosphorylation and spatial memory” value (tau) was “induces Alzheimer-like hyperphosphorylation of tau and spatial memory defects”. For the same molecule, the p62 accumulation (p62) was “reversed” and the “crossing of the blood brain barrier (BBB)” value [2] was “cross the blood brain barrier”.
